The text below walks through data of patent publication US10414811B2, “Protease-resistant lipidated GLP-1 analogs” (MEDIMMUNE LIMITED, priority 2015, dated 2019).

Holding throughout (assay type): cell-based
The target in assay [1] is T1, human GLP-1 receptor (GLP-1R) (Homo sapiens, UniProt P43220).
T1 construct: expressed in transfected cells
Briefly: cAMP assay, human GLP-1R cells. The following applies: for pEC50: cAMP assay; for EC50: mean of n1 and n2, read-out: Mean pM GLP-1R. In outline: (§1)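 Peptide-stimulated cAMP measured by two-step HTRF after a 30 min room-temperature incubation with receptor-expressing cells (hGLP-1R, hGIPR at 1×10^5 cells/ml; hGCGR at 2×10^5 cells/ml). Duplicate dilutions; EC50 from 4-parameter logistic fit of % Delta F.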

Assay [2] deals with T2, human glucagon receptor (GCGR) (Homo sapiens, UniProt P47871).
T2 construct: expressed in transfected cells
T2 sequence (P47871 26-477): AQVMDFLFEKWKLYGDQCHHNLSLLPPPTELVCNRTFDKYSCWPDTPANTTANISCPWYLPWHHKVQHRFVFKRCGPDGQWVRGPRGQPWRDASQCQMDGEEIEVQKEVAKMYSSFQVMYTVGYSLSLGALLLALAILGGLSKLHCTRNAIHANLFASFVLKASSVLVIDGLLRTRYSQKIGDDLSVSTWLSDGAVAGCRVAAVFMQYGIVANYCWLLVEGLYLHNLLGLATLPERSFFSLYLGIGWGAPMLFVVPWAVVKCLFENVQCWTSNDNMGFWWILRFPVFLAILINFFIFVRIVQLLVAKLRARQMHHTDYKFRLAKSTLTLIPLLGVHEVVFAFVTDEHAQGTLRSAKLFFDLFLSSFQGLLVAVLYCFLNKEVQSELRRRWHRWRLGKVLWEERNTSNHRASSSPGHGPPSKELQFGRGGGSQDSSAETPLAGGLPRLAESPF
Briefly: cAMP assay, human GCGR cells. The following applies: cAMP assay. In outline:
as §1

The target in assay [3] is T3, human glucose-dependent insulinotropic peptide receptor (GIPR) (Homo sapiens, UniProt P48546).
T3 construct: expressed in transfected cells
T3 sequence (P48546 22-466): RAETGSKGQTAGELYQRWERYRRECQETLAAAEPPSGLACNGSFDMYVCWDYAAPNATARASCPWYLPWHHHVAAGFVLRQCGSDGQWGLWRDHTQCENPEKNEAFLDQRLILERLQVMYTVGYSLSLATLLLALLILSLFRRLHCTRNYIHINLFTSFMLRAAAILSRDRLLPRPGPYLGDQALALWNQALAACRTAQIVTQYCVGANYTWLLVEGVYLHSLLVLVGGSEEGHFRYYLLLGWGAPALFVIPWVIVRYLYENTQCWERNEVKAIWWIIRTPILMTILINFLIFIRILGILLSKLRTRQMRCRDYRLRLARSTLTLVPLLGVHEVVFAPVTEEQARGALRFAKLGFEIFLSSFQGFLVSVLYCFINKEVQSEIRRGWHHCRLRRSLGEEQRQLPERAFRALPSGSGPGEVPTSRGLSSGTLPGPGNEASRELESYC
Briefly: cAMP assay, human GIPR cells. The following applies: cAMP assay. In short, it runs like this: as §1

Where [4] appears, read: first determination (n1), read-out: Primary assay EC50 GLP-1R n1.
The mark [5] stands for this setting: second determination (n2), read-out: Primary assay EC50 GLP-1R n2.
The mark [6] stands for this setting: first determination (n1), read-out: Primary assay EC50 Gluc-R (n1).
[7] abbreviates: second determination (n2), read-out: Primary assay EC50 Gluc-R (n2).
The mark [8] stands for this setting: first determination (n1), read-out: Primary assay EC50 GIP-R (n1).
The mark [9] stands for this setting: second determination (n2), read-out: Primary assay EC50 GIP-R (n2).

pEC50: −log10 of the molar value. Read-outs that look alike come from different tables or passages of the source. Numbered stars: 1 amine (or outer) side, 2 acyl side, 3 side chain; on linkers, the order of the positions; unused ones are H or OH. Square brackets hold non-standard residues; d marks the D form. Side chains are listed from the residue outwards. Peptide text beside a SMILES is read from it. * marks the point of attachment. γGlu = O=C(O)[C@H](CCC(=O)[*:2])N[*:1]; Palmitoyl = CCCCCCCCCCCCCCCC(=O)*; αMeF = C[C@](N)(Cc1ccccc1)C(=O)O; αMeK = C[C@](N)(CCCCN)C(=O)O; αMeS = C[C@](N)(CO)C(=O)O; Aib = CC(C)(N)C(=O)O Some results are limits rather than exact numbers.

T1 sequence (P43220 24-463): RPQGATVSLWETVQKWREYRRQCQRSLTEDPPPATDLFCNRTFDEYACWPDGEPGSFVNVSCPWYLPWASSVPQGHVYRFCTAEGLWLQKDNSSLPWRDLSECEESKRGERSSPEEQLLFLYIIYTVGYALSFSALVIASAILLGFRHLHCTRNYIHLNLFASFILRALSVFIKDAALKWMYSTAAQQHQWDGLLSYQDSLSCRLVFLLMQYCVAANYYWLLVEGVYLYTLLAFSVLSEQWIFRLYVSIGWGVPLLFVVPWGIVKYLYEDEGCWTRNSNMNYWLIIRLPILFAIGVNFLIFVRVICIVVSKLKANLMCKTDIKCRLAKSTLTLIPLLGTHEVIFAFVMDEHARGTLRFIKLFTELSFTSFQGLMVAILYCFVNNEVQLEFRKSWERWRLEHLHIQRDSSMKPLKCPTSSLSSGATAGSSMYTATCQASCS

For `CC[C@H](C)[C@H](NC(=O)[C@](C)(Cc1ccccc1)NC(=O)[C@H](CCC(=O)O)NC(=O)[C@H](CCCCNC(=O)CC[C@H](NC(=O)CCCCCCCCCCCCCCCCC(=O)O)C(=O)O)NC(=O)[C@H](C)NC(=O)[C@H](C)NC(=O)[C@H](CCC(=O)O)NC(=O)CNC(=O)[C@H](CCC(=O)O)NC(=O)[C@H](CC(C)C)NC(=O)[C@](C)(Cc1ccccc1)NC(=O)[C@H](CO)NC(=O)[C@](C)(CO)NC(=O)[C@@H](NC(=O)[C@H](CC(=O)O)NC(=O)[C@H](CO)NC(=O)[C@@H](NC(=O)[C@](C)(Cc1ccccc1)NC(=O)[C@H](CO)NC(=O)CNC(=O)[C@H](CCC(=O)O)NC(=O)C(C)(C)NC(=O)[C@@H](N)Cc1c[nH]cn1)[C@@H](C)O)C(C)C)C(=O)N[C@@H](C)C(=O)N[C@@](C)(Cc1ccccc1)C(=O)N[C@H](C(=O)N[C@H](C(=O)N[C@@](C)(CCCCN)C(=O)NCC(=O)NCC(N)=O)C(C)C)C(C)C` [compound 155], the pEC50 is 9.54 in assay [1] (setting [4]); 9.72 in assay [1] (setting [5]); not above 7.55 in assay [2] (setting [6]); not above 7.55 in assay [2] (setting [7]); not above 7.55 in assay [3] (setting [8]); not above 7.55 in assay [3] (setting [9]). For the same compound, the EC50 in assay [1] came out at 238 pM.
`CCCCCCCCCCCCCCCC(=O)N[C@@H](CCC(=O)NCCCC[C@H](NC(=O)CNC(=O)CNC(=O)[C@H](CCCCN)NC(=O)[C@@H](NC(=O)[C@@H](NC(=O)[C@](C)(Cc1ccccc1)NC(=O)[C@H](C)NC(=O)[C@@H](NC(=O)[C@](C)(Cc1ccccc1)NC(=O)[C@H](CCC(=O)O)NC(=O)[C@H](CCCCN)NC(=O)[C@H](C)NC(=O)[C@H](C)NC(=O)[C@H](CCC(=O)O)NC(=O)CNC(=O)[C@H](CCC(=O)O)NC(=O)[C@H](CC(C)C)NC(=O)[C@](C)(Cc1ccccc1)NC(=O)[C@H](CO)NC(=O)[C@H](CO)NC(=O)[C@@H](NC(=O)[C@H](CC(=O)O)NC(=O)[C@H](CO)NC(=O)[C@@H](NC(=O)[C@](C)(Cc1ccccc1)NC(=O)[C@H](CO)NC(=O)CNC(=O)[C@H](CCC(=O)O)NC(=O)C(C)(C)NC(=O)[C@@H](N)Cc1c[nH]cn1)[C@@H](C)O)C(C)C)[C@@H](C)CC)C(C)C)C(C)C)C(N)=O)C(=O)O` [compound 39] (H-H[Aib]EGS[αMeF]TSDVSS[αMeF]LEGEAAKE[αMeF]IA[αMeF]VVKGGK([γGlu-Palmitoyl])-NH2; N-terminus assumed): the pEC50 in assay [1] (setting [4]) is 10.48; in assay [1] (setting [5]), 10.48; in assay [2] (setting [6]), not above 7.57; in assay [2] (setting [7]) it was not above 7.57; in assay [3] (setting [8]), not above 7.57; in assay [3] (setting [9]) it was not above 7.57. Moreover, the EC50 in assay [1] came out at 33 pM.
As for `CCCCCCCCCCCCCCCCCC(=O)NCCCCCC(=O)NCCCCCC(=O)NCCCCCC(=O)NCCCC[C@H](NC(=O)[C@@H](NC(=O)[C@@H](NC(=O)[C@](C)(Cc1ccccc1)NC(=O)[C@H](C)NC(=O)[C@@H](NC(=O)[C@](C)(Cc1ccccc1)NC(=O)[C@H](CCC(=O)O)NC(=O)[C@](C)(CCCCN)NC(=O)[C@H](C)NC(=O)[C@H](C)NC(=O)[C@H](CCC(=O)O)NC(=O)CNC(=O)[C@H](CCC(=O)O)NC(=O)[C@H](CC(C)C)NC(=O)[C@](C)(Cc1ccccc1)NC(=O)[C@H](CO)NC(=O)[C@](C)(CO)NC(=O)[C@@H](NC(=O)[C@H](CC(=O)O)NC(=O)[C@H](CO)NC(=O)[C@@H](NC(=O)[C@](C)(Cc1ccccc1)NC(=O)[C@H](CO)NC(=O)CNC(=O)[C@H](CCC(=O)O)NC(=O)C(C)(C)NC(=O)[C@@H](N)Cc1c[nH]cn1)[C@@H](C)O)C(C)C)[C@@H](C)CC)C(C)C)C(C)C)C(=O)NCC(=O)NCC(N)=O` [compound 187], the pEC50 was 10.19 in assay [1] (setting [4]); 10.51 in assay [1] (setting [5]); not above 7.59 in assay [2] (setting [6]); not above 7.59 in assay [2] (setting [7]); not above 7.59 in assay [3] (setting [8]); not above 7.59 in assay [3] (setting [9]). Also, the EC50 in assay [1] was determined as 47.4 pM.
Consider `CC[C@H](C)[C@H](NC(=O)[C@](C)(Cc1ccccc1)NC(=O)[C@H](CCC(=O)O)NC(=O)[C@H](CCCCNC(=O)COCCOCCNC(=O)COCCOCCNC(=O)COCCOCCNC(=O)CCCCCCCCCCCCCCCCC(=O)O)NC(=O)[C@H](C)NC(=O)[C@H](C)NC(=O)[C@H](CCC(=O)O)NC(=O)CNC(=O)[C@H](CCC(=O)O)NC(=O)[C@H](CC(C)C)NC(=O)[C@](C)(Cc1ccccc1)NC(=O)[C@H](CO)NC(=O)[C@](C)(CO)NC(=O)[C@@H](NC(=O)[C@H](CC(=O)O)NC(=O)[C@H](CO)NC(=O)[C@@H](NC(=O)[C@](C)(Cc1ccccc1)NC(=O)[C@H](CO)NC(=O)CNC(=O)[C@H](CCC(=O)O)NC(=O)C(C)(C)NC(=O)[C@@H](N)Cc1c[nH]cn1)[C@@H](C)O)C(C)C)C(=O)N[C@@H](C)C(=O)N[C@@](C)(Cc1ccccc1)C(=O)N[C@H](C(=O)N[C@H](C(=O)N[C@@](C)(CCCCN)C(=O)NCC(=O)NCC(N)=O)C(C)C)C(C)C` [compound 163], for which the pEC50 in assay [1] (setting [4]) was 10.20; in assay [1] (setting [5]), 10.31; in assay [2] (setting [6]), not above 7.60; in assay [2] (setting [7]) it was not above 7.60; in assay [3] (setting [8]), not above 7.60; in assay [3] (setting [9]), not above 7.60. Moreover, the EC50 in assay [1] was determined as 56 pM.
For `CC[C@H](C)[C@H](NC(=O)[C@](C)(Cc1ccccc1)NC(=O)[C@H](CCC(=O)O)NC(=O)[C@H](CCCCNC(=O)COCCOCCNC(=O)COCCOCCNC(=O)CCCCCCCCCCCOc1ccc(C(=O)O)cc1)NC(=O)[C@H](C)NC(=O)[C@H](C)NC(=O)[C@H](CCC(=O)O)NC(=O)CNC(=O)[C@H](CCC(=O)O)NC(=O)[C@H](CC(C)C)NC(=O)[C@](C)(Cc1ccccc1)NC(=O)[C@H](CO)NC(=O)[C@](C)(CO)NC(=O)[C@@H](NC(=O)[C@H](CC(=O)O)NC(=O)[C@H](CO)NC(=O)[C@@H](NC(=O)[C@](C)(Cc1ccccc1)NC(=O)[C@H](CO)NC(=O)CNC(=O)[C@H](CCC(=O)O)NC(=O)C(C)(C)NC(=O)[C@@H](N)Cc1c[nH]cn1)[C@@H](C)O)C(C)C)C(=O)N[C@@H](C)C(=O)N[C@@](C)(Cc1ccccc1)C(=O)N[C@H](C(=O)N[C@H](C(=O)N[C@@](C)(CCCCN)C(=O)NCC(=O)NCC(N)=O)C(C)C)C(C)C` [compound 144], the pEC50 in assay [1] (setting [4]) was 10.80; in assay [1] (setting [5]), 11.02; in assay [2] (Primary assay EC50 Gluc-R (n1), first determination (n1)), not above 7.59; in assay [2] (read-out: Primary assay EC50 Gluc-R (n2), second determination (n2)), not above 7.59; in assay [3] (Primary assay EC50 GIP-R (n1), first determination (n1)), not above 7.59; in assay [3] (read-out: Primary assay EC50 GIP-R (n2), second determination (n2)) it was not above 7.59. Also, the EC50 in assay [1] was 12.6 pM.
Consider `CCCCCCCCCCCC(=O)NCCCCCC(=O)NCCCCCC(=O)NCCCCCC(=O)NCCCC[C@H](NC(=O)[C@H](C)NC(=O)[C@H](C)NC(=O)[C@H](CCC(=O)O)NC(=O)CNC(=O)[C@H](CCC(=O)O)NC(=O)[C@H](CC(C)C)NC(=O)[C@](C)(Cc1ccccc1)NC(=O)[C@H](CO)NC(=O)[C@](C)(CO)NC(=O)[C@@H](NC(=O)[C@H](CC(=O)O)NC(=O)[C@H](CO)NC(=O)[C@@H](NC(=O)[C@](C)(Cc1ccccc1)NC(=O)[C@H](CO)NC(=O)CNC(=O)[C@H](CCC(=O)O)NC(=O)C(C)(C)NC(=O)[C@@H](N)Cc1c[nH]cn1)[C@@H](C)O)C(C)C)C(=O)N[C@@H](CCC(=O)O)C(=O)N[C@@](C)(Cc1ccccc1)C(=O)N[C@H](C(=O)N[C@@H](C)C(=O)N[C@@](C)(Cc1ccccc1)C(=O)N[C@H](C(=O)N[C@H](C(=O)N[C@@](C)(CCCCN)C(=O)NCC(=O)NCC(N)=O)C(C)C)C(C)C)[C@@H](C)CC` [compound 133], for which the pEC50 in assay [1] (setting [4]) was 10.47; in assay [1] (setting [5]), 10.60; in assay [2] (setting [6]), not above 7.57; in assay [2] (setting [7]) it was not above 7.57; in assay [3] (setting [8]), not above 7.57; in assay [3] (setting [9]) it was not above 7.57. Besides, in assay [1], the EC50 worked out at 29.4 pM.
As to `CC[C@H](C)[C@H](NC(=O)[C@](C)(Cc1ccccc1)NC(=O)[C@H](CCC(=O)O)NC(=O)[C@](C)(CCCCN)NC(=O)[C@H](C)NC(=O)[C@H](C)NC(=O)[C@H](CCC(=O)O)NC(=O)CNC(=O)[C@H](CCC(=O)O)NC(=O)[C@H](CC(C)C)NC(=O)[C@](C)(Cc1ccccc1)NC(=O)[C@H](CO)NC(=O)[C@](C)(CO)NC(=O)[C@@H](NC(=O)[C@H](CC(=O)O)NC(=O)[C@H](C)NC(=O)[C@@H](NC(=O)[C@](C)(Cc1ccccc1)NC(=O)[C@H](CO)NC(=O)CNC(=O)[C@H](CCC(=O)O)NC(=O)C(C)(C)NC(=O)[C@@H](N)Cc1c[nH]cn1)[C@@H](C)O)C(C)C)C(=O)N[C@@H](C)C(=O)N[C@@](C)(Cc1ccccc1)C(=O)N[C@H](C(=O)N[C@H](C(=O)N[C@@](C)(CCCCN)C(=O)NCC(=O)NCC(N)=O)C(C)C)C(C)C` [compound 26] (H-H[Aib]EGS[αMeF]TADV[αMeS]S[αMeF]LEGEAA[αMeK]E[αMeF]IA[αMeF]VV[αMeK]GG-NH2), the pEC50 in assay [1] (setting [4]) is 10.00; in assay [1] (setting [5]), 9.82; in assay [2] (setting [6]) it was not above 7.00; in assay [2] (setting [7]) it was 7.52; in assay [3] (setting [8]) it was not above 7.00; in assay [3] (setting [9]), not above 7.00. The EC50 in assay [1] turned out to be 123 pM.
